Experimental data: patent US20110143948A1, “MOLECULAR SIGNATURES AND BIOMARKERS ASSOCIATED WITH MELANOMA AND METHODS OF USE THEREOF” (priority 2008, published 2011)

Tested on: ncRNAs (SEQ ID NO 28-89)
Assay: ncRNA arrays of melanocytes, keratinocytes, normal skin, melanoma cell lines and patient samples
Set-up: species or system human
Conditions: for ncRNA array expression, patient 2: melanoma patient 2 sample compared to normal skin; for ncRNA array expression, patient 3: melanoma patient 3 sample compared to normal skin; for ncRNA array expression, patient 4: melanoma patient 4 sample compared to normal skin; for ncRNA array expression, patient 5: melanoma patient 5 sample compared to normal skin; for ncRNA array expression, patient 6: melanoma patient 6 sample compared to normal skin; for ncRNA array expression, patient 7: melanoma patient 7 sample compared to normal skin; for ncRNA array expression, patient 8: melanoma patient 8 sample compared to normal skin; for ncRNA array expression, patient 9: melanoma patient 9 sample compared to normal skin; for ncRNA array expression, patient 10: melanoma patient 10 sample compared to normal skin; for ncRNA array expression, patient 19: melanoma patient 19 sample compared to normal skin; for ncRNA array expression, patient 20: melanoma patient 20 sample compared to normal skin; for ncRNA array expression, patient 21: melanoma patient 21 sample compared to normal skin; for ncRNA array expression, patient 22: melanoma patient 22 sample compared to normal skin; for ncRNA array expression, patient 23: melanoma patient 23 sample compared to normal skin; for ncRNA array expression, patient 24: melanoma patient 24 sample compared to normal skin; for ncRNA array expression, patient 25: melanoma patient 25 sample compared to normal skin; for ncRNA array expression, patient 26: melanoma patient 26 sample compared to normal skin; for ncRNA array expression, patient 27: melanoma patient 27 sample compared to normal skin; for ncRNA array expression, patient 28: melanoma patient 28 sample compared to normal skin; for ncRNA array expression, patient 29: melanoma patient 29 sample compared to normal skin; for ncRNA array expression, patient 30: melanoma patient 30 sample compared to normal skin
Outline: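 Total RNA from melanocytes, keratinocytes, normal human skin, melanoma cell lines and melanoma patient samples was profiled on an array of >10,000 putative (>200 nt) human and mouse ncRNAs plus RefSeq mRNA probes. Expression was compared with melanocytes or normal skin, keratinocyte signatures were subtracted, and hits were validated by qRT-PCR and Northern blot.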

Row | Substance | ncRNA array expression, patient 2 | ncRNA array expression, patient 3 | ncRNA array expression, patient 4 | ncRNA array expression, patient 5 | ncRNA array expression, patient 6 | ncRNA array expression, patient 7 | ncRNA array expression, patient 8 | ncRNA array expression, patient 9 | ncRNA array expression, patient 10 | ncRNA array expression, patient 19 | ncRNA array expression, patient 20 | ncRNA array expression, patient 21 | ncRNA array expression, patient 22 | ncRNA array expression, patient 23 | ncRNA array expression, patient 24 | ncRNA array expression, patient 25 | ncRNA array expression, patient 26 | ncRNA array expression, patient 27 | ncRNA array expression, patient 28 | ncRNA array expression, patient 29 | other results
1 | SEQ ID NO 54 (TTTTTTTTCTTGTCCTATTACAACATTTTATAACCTTATGAATCAATGGATACTTTTATT; listed as DNA, chemistry not given here; listed as Homo sapiens) | 0.357 | 2.627 | 3.179 | 0.2547 | 0.568 | 1.3 | 1.144 | −0.1401 | 0.4363 | 3.034 | 1.876 | 1.299 | −0.2466 | 0.7631 | 2.124 | 3.287 | 2.689 | 4.17 | 1.501 | −0.1851 | ncRNA array expression, patient 30: −0.1125
2 | SEQ ID NO 37 (ACGCACTGGGCGTTGAAGCAGTGCTTTCTGGATTAAATACGAAATACTGATGTCACAAGC; DNA, backbone and methylation of C not given here; listed as Homo sapiens) | 1.589 | 0.3993 | 0.7773 | 2.425 | −0.3494 | 1.933 | 1.302 | 2.619 | 3.899 | 4.51 | 0.9938 | 2.575 | 0.0988 | 1.771 | 4.312 | 3.471 | 2.31 | 0.5554 | 1.732 | 2.461 | ncRNA array expression, patient 30: −1.17
3 | SEQ ID NO 83 (TCAGTTTGATGATTGGGCTAGGGAATGAAGCTTTGCCACTTAGGAGATAAACCCCATAAC; listed as DNA, chemistry not given here; listed as Homo sapiens) | −1.488 | −1.164 | −1.691 | −1.156 | −0.6047 | −0.9496 | −0.9534 | −1.016 | −1.381 | −1.6448 | −1.228 | −1.45 | −1.116 | −1.855 | −1.066 | −1.422 | −1.405 | −1.43 | −1.28 | −1.1118 | ncRNA array expression, patient 30: −1.73
4 | SEQ ID NO 61 (CATACATTGCCCTCACTAATCAATGGACATTTCAGCATTTCATTACTAATTTTGAGAGAA; listed as DNA, chemistry not given here; listed as Homo sapiens) | 1.244 | 1.117 | 1.12 | 3.917 | 0.992 | 2.069 | 1.86 | 1.694 | 3.678 | 0.6865 | −0.03568 | 1.984 | −0.1143 | 0.5527 | 3.802 | 2.349 | 2.817 | 1.264 | 2.585 | 3.112 | ncRNA array expression, patient 30: 0.254
5 | SEQ ID NO 28 (CTTAATGTATCTAAGGTTGGCTTAATCCTGTCTAAAATCAAGGTATTGGACTAGAACAAT; DNA, backbone and methylation of C not given here; listed as Homo sapiens) | 2.064 | 2.037 | 2.709 | 1.822 | −0.1399 | 2.032 | 1.588 | 0.7923 | −0.2665 | 0.5486 | 1.334 | 0.4728 | 1.388 | 2.286 | 0.3368 | 2.417 | 3.091 | 2.371 | 3.316 | 3.278 | ncRNA array expression, patient 30: −1.35
6 | SEQ ID NO 34 (TTTTCTCTGCTTATTACCCTCCCTGTTTCCTCCTGGGCTGCCAACAACATATTATATTAC; listed as DNA, chemistry not given here; listed as Homo sapiens) | 2.375 | 2.833 | 2.701 | 2.722 | 2.606 | 3.005 | 2.354 | 1.958 | −1.787 | 2.243 | 3.044 | 2.382 | 2.727 | 2.643 | 1.817 | 2.013 | 1.687 | 2.945 | 2.485 | 2.129 | ncRNA array expression, patient 30: −0.1242
7 | SEQ ID NO 67 (TTCCCTATTCCATCCTTTGATGGGTGGCCTGTTACACGTTTGGAAATAAAAACAAGTGGG; listed as DNA, chemistry not given here; listed as Homo sapiens) | 2.053 | 1.721 | 0.6532 | 4.146 | 1.481 | 2.486 | 1.375 | 1.111 | 3.887 | 0.7069 | 1.071 | 3.856 | 1.186 | 2.369 | 1.045 | 0.3622 | 0.8179 | 1.392 | 6.659 | 2.096 | ncRNA array expression, patient 30: −1.191
8 | SEQ ID NO 81 (CTAGGGGCGGAGTTTCTCGTAAGGGGCAAGGCCAAGGCATCTTGTATTGGGGCTGACAGG; listed as DNA, chemistry not given here; listed as Homo sapiens) | −2.704 | −2.664 | −2.74 | −2.515 | −1.776 | −2.533 | −2.25 | −2.579 | −3.027 | −2.079 | −2.527 | −2.568 | −1.3874 | −1.288 | −2.451 | −2.889 | −3.081 | −2.77 | −2.666 | −2.727 | ncRNA array expression, patient 30: 2.229
